Laboratory results: patent publication US5084443A, “Promoting expression of acetylcholine receptors with LHRH antagonist” (Biomeasure, Inc., priority 1989, dated 1992)
Where two headings read alike, the source gives them in different places.

What was measured:
acetylcholine receptors = format: in vivo, Sprague Dawley rats; settings: for AChR (cpm) / AChR: peptide crushed; for AChR: fmoles per ug protein
denervated EDL muscle = assay: Denervation atrophy of EDL muscle after peroneal nerve crush (wet muscle weight, protein content); format: in vivo, Sprague Dawley rats; settings: for Muscle wt / Proteins: peptide crushed; for Muscle wt: wet EDL weight; for Proteins: ug protein content per mg muscle weight
Procedure: LHRH analogs can be tested for effectiveness in treating injured nerve tissue or preserving muscle mass according to the testing procedures described below for the LHRH analog BIM-21009. BIM-21009 is an antagonist of LHRH activity having the amino acid formula N-Acetyl-D-Naphthylalanine-D-para-Cl-Phe-D-Phe-Ser-Tyr-D-Arg-Phe-Arg-Pro-D-Ala-NH2. BIM-21009 was administered to animals both prior to and after denervation. The animals were prepared for treatment as follows.
Adult male and female Sprague Dawley rats (Hilltop) weighing approximately 250-275 g were housed in groups of three of the same sex and provided with Purina rat chow and water ad libitum. They were maintained in a 12L:12D photoperiod with lights off at 19:00 hr. Animals were divided into 2 groups having six subdivisions each of 5-7 animals: (1) four days post-lesion: "sham crushed" (i.e., sham nerve crush) males and females, "intact crushed" (i.e., nerve crush control group) males and females, and "LHRH antagonist treated and crushed" (i.e., peptide treatment after nerve crush, also referred to as "peptide crushed") males and females; and (2) twelve days post-lesion: sham crushed males and females, intact crushed males and females, and LHRH treated and crushed males and females.
All animals were anesthetized with an 8% solution of chloral hydrate (0.4 g/kg). An incision was made on the left leg and the peroneal nerve was exposed at its site of entrance into the peroneal longus muscle. The nerve was crushed with a watchmaker forcep having a uniformly filed tip of 0.2 mm, by applying pressure on the nerve for 10 seconds, rotating the forceps, and applying pressure again on the opposite side for another 10 seconds. After crush, this area of approximately 1 mm becomes translucid. This modified crush method gives well-defined axonal interruption without disrupting the connective tissue sheaths or blood vessels in the region.
All chemically treated animals received 1 s.c. injection of the LHRH antagonist BIM-21009 at a dosage of 5 mg/kg 24 hrs prior to denervation. Animals in the 12 day groups received an additional injection of 5 mg/kg 6 days after the first injection.
Dissections were performed between 13:00 and 15:00 hrs. The peroneal nerve was allowed to regenerate for 4 or 12 days, after which the animals were anesthetized with chloral hydrate (0.4 g/kg), the extensor digitorum longus ("EDL") was dissected, frozen on powdered dry ice and stored at -70° C. until the day of the assay.
The Lowry Method was used for protein determinations. Statistical analysis was performed using 2×2 ANOVA, 1 way ANOVA. Tukey's HSD test was used for post-hoc comparisons.

[1] = females, 4 days post-lesion, 5 mg/kg s.c.
[2] = females, 12 days post-lesion, 2 x 5 mg/kg s.c.
[3] = males, 4 days post-lesion, 5 mg/kg s.c.
[4] = males, 12 days post-lesion, 2 x 5 mg/kg s.c.

N-Acetyl-D-Naphthylalanine-D-para-Cl-Phe-D-Phe-Ser-Tyr-D-Arg-Phe-Arg-Pro-D-Ala-NH2 [BIM-21009]
ratio of cpm/mg muscle vs intact crushed groups (acetylcholine receptors; both males and females (FIG. 5)): higher ratio of cpm/mg muscle | number of ACh receptors (acetylcholine receptors; both sexes, at 4 days after nerve crush, more marked in males): dramatic increase | time course of effect on ACh receptor number (acetylcholine receptors; day 4 vs day 12 post-lesion): maximal effect at day 4 post-lesion and a minimal or null effect by day 12 | AChR (cpm) (acetylcholine receptors; [1]): 23.39 cpm | AChR (acetylcholine receptors; [1]): 90.07 fmol | AChR (cpm) (acetylcholine receptors; [2]): 15.34 cpm | AChR (acetylcholine receptors; [2]): 65.74 fmol | ratio of AChR number/muscle (fM AChR/mg muscle or fM/ug protein) vs crushed group with intact gonads (acetylcholine receptors; male and female rats (FIGS. 3 and 4)): significantly higher ratio | AChR number/muscle weight ratio vs crushed untreated controls (acetylcholine receptors; males with intact gonads (FIG. 4)): higher than in the crushed untreated controls | AChR (cpm) (acetylcholine receptors; [3]): 38.37 cpm | AChR (acetylcholine receptors; [3]): 166.96 fmol | AChR (cpm) (acetylcholine receptors; [4]): 19.01 cpm | AChR (acetylcholine receptors; [4]): 82.09 fmol | atrophy of the denervated EDL muscle vs crushed control group (denervated EDL muscle; both at 4 days and at 12 days post-lesion, less striking in females than in males): significantly decreased | recovery from the crush-induced muscle atrophy: protein content (denervated EDL muscle; females as well as males (FIG. 2)): increase in protein content rather than fat accumulation or edema | Muscle wt (denervated EDL muscle; females, 4 days post-lesion, 5 mg/kg s.c. 24 hrs prior to denervation): 83.8 mg | Proteins (denervated EDL muscle; [1]): 4.58 µg | Muscle wt (denervated EDL muscle; females, 12 days post-lesion, 5 mg/kg s.c. 24 hrs prior to denervation plus 5 mg/kg 6 days later): 84.0 mg | Proteins (denervated EDL muscle; [2]): 4.23 µg | protection of EDL muscle from denervation atrophy (denervated EDL muscle; males): protects the EDL muscle in the males from denervation atrophy | Muscle wt (denervated EDL muscle; males, 4 days post-lesion, 5 mg/kg s.c. 24 hrs prior to denervation): 81.2 mg | Proteins (denervated EDL muscle; [3]): 4.05 µg | Muscle wt (denervated EDL muscle; males, 12 days post-lesion, 5 mg/kg s.c. 24 hrs prior to denervation plus 5 mg/kg 6 days later): 83.1 mg | Proteins (denervated EDL muscle; [4]): 4.34 µg
